This passage reports IC50 results from patent US8710224B2, “Heterocyclic compounds as CCR2B antagonists” (AstraZeneca AB, priority 2004, dated 2014).

This test concerns the target T1, recombinant human CCR5 receptor (Homo sapiens, UniProt P51681).
T1 construct: expressed in transfected cells; host or cells: Chinese hamster ovary (CHO) cells; membranes
Kind of test: Radioligand binding assay for inhibition of the binding of MIP-1α. The note with it: displacement of 0.1 nM iodinated MIP-1α; membranes of Chinese hamster ovary cells expressing CCR5. The protocol:
Biological Assay for the Ability of Compounds to Inhibit the Binding of MIP-1α This ability is assessed using an in vitro radioligand binding assay. Membranes are prepared from Chinese hamster ovary cells which express the recombinant human CCR5 receptor. These membranes are incubated with 0.1 nM iodinated MIP-1α, scintillation proximity beads and various concentrations of the compounds of the invention in 96-well plates. The amount of iodinated MIP-1α bound to the receptor is then determined by scintillation counting.

T1 sequence (P51681 whole entry): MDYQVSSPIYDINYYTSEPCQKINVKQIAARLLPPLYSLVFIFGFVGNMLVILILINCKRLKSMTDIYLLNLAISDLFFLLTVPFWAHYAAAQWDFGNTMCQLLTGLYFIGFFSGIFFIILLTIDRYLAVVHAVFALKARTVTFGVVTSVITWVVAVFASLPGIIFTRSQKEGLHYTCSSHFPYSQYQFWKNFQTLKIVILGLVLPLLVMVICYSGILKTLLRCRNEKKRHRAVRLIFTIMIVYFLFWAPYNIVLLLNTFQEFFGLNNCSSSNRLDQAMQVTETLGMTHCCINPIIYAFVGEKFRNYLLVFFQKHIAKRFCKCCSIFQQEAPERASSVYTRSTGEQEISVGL

As to `Cc1ccc(NC(=O)N2CCN(C[C@@H]3CCCN(C4CC4)C3)CC2)cc1Cl` [Example 110, N-(3-chloro-4-methylphenyl)-4-{[(3S)-1-cyclopropylpiperidin-3-yl]methyl}piperazine-1-carboxamide], the half-maximal inhibitory concentration (IC50) was below 10 µM. Turning to `O=C(Nc1ccc(C(F)(F)F)cc1)N1CCN(C[C@@H]2CCCN(C3CC3)C2)CC1` [Example 111, 4-{[(3S)-1-cyclopropylpiperidin-3-yl]methyl}-N-[4-(trifluoromethyl)phenyl]piperazine-1-carboxamide], the IC50 was below 10 µM. The value for `CC(C)(C)c1cc(NC(=O)N2CCN(C[C@@H]3CCCN(C4CC4)C3)CC2)no1` [Example 112, N-(5-tert-butylisoxazol-3-yl)-4-{[(3S)-1-cyclopropylpiperidin-3-yl]methyl}piperazine-1-carboxamide] was below 10 µM; that for `COCCN1CCC[C@@H](CN2CCN(C(=O)Nc3ccc(Cl)c(Cl)c3)CC2)C1` [Example 113, N-(3,4-dichlorophenyl)-4-{[(3S)-1-(2-methoxyethyl)piperidin-3-yl]methyl}piperazine-1-carboxamide] was below 10 µM; that for `O=C(Nc1ccc(Cl)c(Cl)c1)N1CCN(C[C@H]2CN(C3CCC3)CCO2)CC1` [Example 115, 4-{[(2S)-4-cyclobutylmorpholin-2-yl]methyl}-N-(3,4-dichlorophenyl)piperazine-1-carboxamide] was below 10 µM. As to `O=C(Nc1ccc(Cl)c(Cl)c1)N1CCN(C[C@H]2CN(C3CCCC3)CCO2)CC1` [Example 118, 4-{[(2S)-4-cyclopentylmorpholin-2-yl]methyl}-N-(3,4-dichlorophenyl)piperazine-1-carboxamide], the half-maximal inhibitory concentration (IC50) is below 10 µM. As for `CC(C)N1CCO[C@@H](CN2CCN(C(=O)Nc3ccc(Cl)c(Cl)c3)CC2)C1` [Example 119, N-(3,4-dichlorophenyl)-4-{[(2S)-4-isopropylmorpholin-2-yl]methyl}piperazine-1-carboxamide], the 50% inhibitory concentration (IC50) is below 10 µM.

`CC(=O)N1CCC(N2CCO[C@@H](CN3CCN(C(=O)Nc4ccc(Cl)c(Cl)c4)CC3)C2)CC1` [Example 120, 4-{[(2S)-4-(1-acetylpiperidin-4-yl)morpholin-2-yl]methyl}-N-(3,4-dichlorophenyl)piperazine-1-carboxamide]: the IC50 was below 10 µM. Consider `O=C(Nc1ccc(Cl)c(Cl)c1)N1CCN(C[C@H]2CN(C3CCOCC3)CCO2)CC1` [Example 121, N-(3,4-dichlorophenyl)-4-{[(2S)-4-(tetrahydro-2H-pyran-4-yl)morpholin-2-yl]methyl}piperazine-1-carboxamide], for which the IC50 was below 10 µM.

For `O=C(Nc1ccc(Cl)c(Cl)c1)N1CCN(C[C@H]2CN(C3CCC(O)CC3)CCO2)CC1` (stereo partly drawn) [Example 122, N-(3,4-dichlorophenyl)-4-{[(2S)-4-(4-hydroxycyclohexyl)morpholin-2-yl]methyl}piperazine-1-carboxamide], the IC50 is below 10 µM. For `CCN1CCN[C@@H](C(=O)N2CCN(C(=O)Nc3ccc(Cl)cc3)CC2)C1` [Example 131, N-(4-Chlorophenyl)-4-{[(2R)-4-ethylpiperazin-2-yl]carbonyl}piperazine-1-carboxamide], the half-inhibitory concentration (IC50) was below 10 µM. Take `CCN1CCN[C@@H](C(=O)N2CCN(C(=O)Nc3cccc(Cl)c3)CC2)C1` [Example 132, N-(3-Chlorophenyl)-4-{[(2R)-4-ethylpiperazin-2-yl]carbonyl}piperazine-1-carboxamide]: the IC50 was below 10 µM. Next, `CCN1CCN[C@@H](C(=O)N2CCN(C(=O)Nc3ccc(Cl)c(Cl)c3)CC2)C1` [Example 133, N-(3,4-Dichlorophenyl)-4-{[(2R)-4-ethylpiperazin-2-yl]carbonyl}piperazine-1-carboxamide]: below 10 µM; `CC(C)N1CCN[C@@H](C(=O)N2CCN(C(=O)Nc3ccc(Cl)c(Cl)c3)CC2)C1` [Example 134, N-(3,4-dichlorophenyl)-4-{[(2R)-4-isopropylpiperazin-2-yl]carbonyl}piperazine-1-carboxamide]: below 10 µM. As to `O=C(Nc1ccc(Cl)c(Cl)c1)N1CCN(C(=O)[C@H]2CN(C3CC3)CCN2)CC1` [Example 135, 4-[(2R)(4-Cyclopropylpiperazin-2-yl)carbonyl]-N-(3,4-dichlorophenyl)piperazine-1-carboxamide], the IC50 is below 10 µM.

Turning to `O=C(Nc1ccc(Cl)c(Cl)c1)N1CCN(C(=O)[C@H]2CN(CCc3ccccc3)CCN2)CC1` [Example 138, N-(3,4-Dichlorophenyl)-4-{[(2R)-4-(2-phenylethyl)piperazin-2-yl]carbonyl}piperazine-1-carboxamide], the IC50 is below 10 µM. With `O=C(Nc1ccc(Cl)c(Cl)c1)N1CCN(C[C@@H]2CCCN(C3CCC(O)CC3)C2)CC1` (stereo partly drawn) [Example 145, N-(3,4-dichlorophenyl)-4-{[(3S)-1-(4-hydroxycyclohexyl)piperidin-3-yl]methyl}piperazine-1-carboxamide], the IC50 is below 10 µM. With `O=C(Nc1ccc(Cl)c(Cl)c1)N1CCN(C(=O)C2CCN([C@H]3CC[C@](O)(c4ccccn4)CC3)C2)CC1` (stereo partly drawn) [Example 146, N-(3,4-dichlorophenyl)-4-{[1-(4-hydroxy-4-pyridin-2-ylcyclohexyl)pyrrolidin-3-yl]carbonyl}piperazine-1-carboxamide], the 50% inhibitory concentration (IC50) is below 10 µM. For `O=C(Nc1ccc(Cl)c(Cl)c1)N1CCN(C(=O)C2CCN([C@H]3CC[C@](O)(c4ccncc4)CC3)C2)CC1` (stereo partly drawn) [Example 147, N-(3,4-dichlorophenyl)-4-{[1-(cis-4-hydroxy-4-pyridin-4-ylcyclohexyl)pyrrolidin-3-yl]carbonyl}piperazine-1-carboxamide], the 50% inhibitory concentration (IC50) is below 10 µM.

For `O=C(Nc1ccc(Cl)c(Cl)c1)N1CCN(C(=O)C2CCN(C3CCC(O)(c4nccs4)CC3)C2)CC1` (stereo not drawn) [Example 148, N-(3,4-dichlorophenyl)-4-({1-[cis-4-hydroxy-4-(1,3-thiazol-2-yl)cyclohexyl]pyrrolidin-3-yl}carbonyl)piperazine-1-carboxamide], the half-inhibitory concentration (IC50) is below 10 µM. As to `O=C(Nc1ccc(Cl)c(Cl)c1)N1CCN(CC2CCN([C@H]3CC[C@](O)(c4ccncc4)CC3)C2)CC1` (stereo partly drawn) [Example 150, N-(3,4-dichlorophenyl)-4-{[1-(4-hydroxy-4-pyridin-4-ylcyclohexyl)pyrrolidin-3-yl]methyl}piperazine-1-carboxamide], the concentration for half-maximal inhibition (IC50) was below 10 µM. Take `O=C(Nc1ccc(Cl)c(Cl)c1)N1CCN(C[C@@H]2CCCN(CC(c3ccccc3)c3ccccc3)C2)CC1` [Example 153, N-(3,4-Dichlorophenyl)-4-{[(3R)-1-(2,2-diphenylethyl)piperidin-3-yl]methyl}piperazine-1-carboxamide]: the IC50 was below 10 µM. Consider `O=C(Nc1ccc(Cl)c(Cl)c1)N1CCN(C[C@@H]2CCCN(CCc3ccc(Cl)cc3)C2)CC1` [Example 154, 4-({(3R)-1-[2-(4-Chlorophenyl)ethyl]piperidin-3-yl}methyl)-N-(3,4-dichlorophenyl)piperazine-1-carboxamide], for which the IC50 is below 10 µM. The value for `O=C(Nc1ccc(Cl)c(Cl)c1)N1CCN(C[C@@H]2CCCN(C3Cc4ccccc4C3)C2)CC1` [Example 161, N-(3,4-dichlorophenyl)-4-{[(3S)-1-(2,3-dihydro-1H-inden-2-yl)piperidin-3-yl]methyl}piperazine-1-carboxamide] was below 10 µM; that for `N#Cc1ccc(OCCN2CCC[C@@H](CN3CCN(C(=O)Nc4ccc(Cl)c(Cl)c4)CC3)C2)cc1` [Example 170, 4-({(3S)-1-[2-(4-Cyanophenoxy)ethyl]piperidin-3-yl}methyl)-N-(3,4-dichlorophenyl)piperazine-1-carboxamide] was below 10 µM; that for `O=C(Nc1ccc(Cl)c(Cl)c1)N1CCN(C[C@@H]2CCCN(CCOc3ccc(F)cc3)C2)CC1` [Example 171, N-(3,4-Dichlorophenyl)-4-({(3S)-1-[2-(4-fluorophenoxy)ethyl]piperidin-3-yl}methyl)piperazine-1-carboxamide] was below 10 µM. In the case of `O=C(Nc1ccc(Cl)c(Cl)c1)N1CCN(C[C@@H]2CCCN(C3CCOCC3)C2)CC1` [Example 172, N-(3,4-Dichlorophenyl)-4-{[(3S)-1-(tetrahydro-2H-pyran-4-yl)piperidin-3-yl]methyl}piperazine-1-carboxamide], the concentration for half-maximal inhibition (IC50) was below 10 µM.

In the case of `CC(=O)N1CCC(N2CCC[C@@H](CN3CCN(C(=O)Nc4ccc(Cl)c(Cl)c4)CC3)C2)CC1` [Example 175, 4-{[(3S)-1′-Acetyl-1,4′-bipiperidin-3-yl]methyl}-N-(3,4-dichlorophenyl)piperazine-1-carboxamide], the IC50 is below 10 µM. For `CS(=O)(=O)N1CCC(N2CCC[C@@H](CN3CCN(C(=O)Nc4ccc(Cl)c(Cl)c4)CC3)C2)CC1` [Example 176, N-(3,4-Dichlorophenyl)-4-{[(3S)-1′-(methylsulfonyl)-1,4′-bipiperidin-3-yl]methyl}piperazine-1-carboxamide], the half-maximal inhibitory concentration (IC50) was below 10 µM. As for `O=C(Nc1cccc(Cl)c1)N1CCN(C[C@@H]2CCCN(CCc3ccccc3)C2)CC1` [Example 180, N-(3-chlorophenyl)-4-{[(3R)-1-(2-phenylethyl)piperidin-3-yl]methyl} piperazine-1-carboxamide], the IC50 was below 10 µM. Next, `O=C(Nc1ccc(Cl)cc1)N1CCN(C[C@@H]2CCCN(CCc3ccccc3)C2)CC1` [Example 181, N-(4-chlorophenyl)-4-{[(3R)-1-(2-phenylethyl)piperidin-3-yl]methyl} piperazine-1-carboxamide]: below 10 µM; `O=C(Nc1ccc(Cl)c(C(F)(F)F)c1)N1CCN(C[C@@H]2CCCN(C3CC3)C2)CC1` [Example 186, N-[4-chloro-3-(trifluoromethyl)phenyl]-4-{[(3S)-1-cyclopropylpiperidin-3-yl]methyl}piperazine-1-carboxamide]: below 10 µM. `Cc1ccc(NC(=O)N2CCN(C[C@H]3CN(C(C)C)CCO3)CC2)cc1Cl` [Example 187, N-(3-chloro-4-methylphenyl)-4-{[(2S)-4-isopropylmorpholin-2-yl]methyl}piperazine-1-carboxamide]: the IC50 was below 10 µM.
